Experimental data from patent publication US9718790B2, “Triazine derivative and pharmaceutical composition having an analgesic activity comprising the same” (SHIONOGI & CO., LTD., priority 2010, dated 2017).
Values joined by “and” are separate entries in the source; they are usually repeats but may differ in a detail not shown here. Identical values can stand only once.

Biological target: human P2X3 receptor (Homo sapiens (Human), UniProt P56373)
Experiment: Evaluation of human P2X3 receptor inhibitory activity (Fluo-3 calcium fluorescence, FDSS 3000, ATP stimulation);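 also: stimulus was 50 nM ATP with fluorescence followed for 3 min, and the response per well was peak post-ATP fluorescence divided by the reading at measurement start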
Format: cell-based
Conditions: C6BU-1 cells stably expressing human P2X3 receptor, Fluo-3 fluorescence, FDSS 3000

Chain of human P2X3 receptor (P56373 whole entry): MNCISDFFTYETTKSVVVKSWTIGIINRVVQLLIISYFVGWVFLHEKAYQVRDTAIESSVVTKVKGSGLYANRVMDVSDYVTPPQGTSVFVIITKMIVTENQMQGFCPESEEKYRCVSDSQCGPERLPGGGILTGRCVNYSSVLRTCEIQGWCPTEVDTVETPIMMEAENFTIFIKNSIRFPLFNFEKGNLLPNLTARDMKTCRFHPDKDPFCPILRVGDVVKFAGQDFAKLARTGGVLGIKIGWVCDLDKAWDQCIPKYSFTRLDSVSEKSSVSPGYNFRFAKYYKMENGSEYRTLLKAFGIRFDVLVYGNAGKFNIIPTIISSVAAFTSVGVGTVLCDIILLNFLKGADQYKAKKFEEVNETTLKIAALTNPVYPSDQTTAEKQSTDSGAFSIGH

Point of comparison: `Cc1ccc(Cn2c(=O)n(C[C@H](C)C(=O)O)c(=O)[nH]/c2=N\c2ccc(OC(C)C)c(C#N)c2)cc1` [Compound I-0961], IC50 74 nM. Against it:
- C=Cc1ccc(Cn2c(=O)n(C[C@H](C)C(=O)O)c(=O)[nH]/c2=N\c2ccc(OC(C)C)c(C)c2)cc1 [Compound I-0897, (S)-1-(4-vinylbenzyl)-6-(3-mehyl-4-isopropoxyphenylimino)-3-(2-hydroxycarbonylpropyl)-1,3,5-triazinane-2,4-dion] — 3-fold lower, 25 nM
- CCc1ccc(Cn2c(=O)n(C[C@H](C)C(=O)O)c(=O)[nH]/c2=N\c2ccc(OC(C)C)c(C)c2)cc1 [Compound I-0898, (S)-1-(4-ethylbenzyl)-6-(3-mehyl-4-isopropoxyphenylimino)-3-(2-hydroxycarbonylpropyl)-1,3,5-triazinane-2,4-dion] — 3.7-fold lower, 20 nM
- Cc1cc(/N=c2\[nH]c(=O)n(CC3(CO)COC3)c(=O)n2Cc2ccc(Cl)cc2)ccc1OC(C)C [Compound I-0906] — 9.2-fold lower, 8 nM
- C=Cc1cc(/N=c2\[nH]c(=O)n(C[C@H](C)C(=O)OC)c(=O)n2Cc2ccc(C)cc2)ccc1OC(C)C [Compound I-0907, (S)-1-(4-methylbenzyl)-6-(3-vinyl-4-isopropoxyphenylimino)-3-(2-methoxycarbonylpropyl)-1,3,5-triazinane-2,4-dion] — 11-fold lower, 7 nM
- CCc1cc(/N=c2\[nH]c(=O)n(C[C@H](C)C(=O)OC)c(=O)n2Cc2ccc(C)cc2)ccc1OC(C)C [Compound I-0908, (S)-1-(4-methylbenzyl)-6-(3-ethyl-4-isopropoxyphenylimino)-3-(2-methoxycarbonylpropyl)-1,3,5-triazinane-2,4-dion] — 5.7-fold lower, 13 nM
- Cc1ccc(Cn2c(=O)n(C[C@H](C)C(=O)O)c(=O)[nH]/c2=N\c2ccc(OC(C)C)c(Br)c2)cc1 [Compound I-0909] — 11-fold lower, 7 nM
- C=Cc1cc(/N=c2\[nH]c(=O)n(C[C@H](C)C(=O)O)c(=O)n2Cc2ccc(C)cc2)ccc1OC(C)C [Compound I-0910, (S)-1-(4-methylbenzyl)-6-(3-vinyl-4-isopropoxyphenylimino)-3-(2-hydroxycarbonylpropyl)-1,3,5-triazinane-2,4-dion] — 9.2-fold lower, 8 nM
- CCc1cc(/N=c2\[nH]c(=O)n(C[C@H](C)C(=O)O)c(=O)n2Cc2ccc(C)cc2)ccc1OC(C)C [Compound I-0911, (S)-1-(4-methylbenzyl)-6-(3-ethyl-4-isopropoxyphenylimino)-3-(2-hydroxycarbonylpropyl)-1,3,5-triazinane-2,4-dion] — 4.9-fold lower, 15 nM
- CCCOc1ccc(/N=c2\[nH]c(=O)n(CC3(C(=O)OCC)CC3)c(=O)n2Cc2ccc(C)cc2)cc1 [Compound I-0912] — 7.4-fold lower, 10 nM
- CCOC(=O)C1(Cn2c(=O)[nH]/c(=N\c3ccc(OCC4CC4)cc3)n(Cc3ccc(C)cc3)c2=O)CC1 [Compound I-0913] — 8.2-fold lower, 9 nM
- Cc1ccc(Cn2c(=O)n(CC3(C(=O)O)CC3)c(=O)[nH]/c2=N\c2ccc(OCC3CC3)cc2)cc1 [Compound I-0915] — within 1.5-fold, 75 nM
- CCOc1ccc(/N=c2\[nH]c(=O)n([C@@H](C)[C@@H](C)C(=O)OC)c(=O)n2Cc2ccc(Cl)cc2)cc1Cl [Compound I-0916] — 3.9-fold lower, 19 nM
- COC(=O)[C@H](C)[C@H](C)n1c(=O)[nH]/c(=N\c2ccc(OC(C)C)c(Cl)c2)n(Cc2ccc(Cl)cc2)c1=O [Compound I-0917] — 3.9-fold lower, 19 nM
- CCOC(=O)C1(Cn2c(=O)[nH]/c(=N\c3ccc(OCC)c(Cl)c3)n(Cc3ccc(Cl)cc3)c2=O)CC1 [Compound I-0918] — 5.3-fold lower, 14 nM
- CCCOc1ccc(/N=c2\[nH]c(=O)n(CC3(C(=O)OCC)CC3)c(=O)n2Cc2ccc(Cl)cc2)cc1 [Compound I-0919] — 5.3-fold lower, 14 nM
- CCCOc1ccc(/N=c2\[nH]c(=O)n([C@@H](C)[C@@H](C)C(=O)O)c(=O)n2Cc2ccc(Cl)cc2)cc1 [Compound I-0920] — 2-fold lower, 37 nM
- C[C@@H](C(=O)O)[C@H](C)n1c(=O)[nH]/c(=N\c2ccc(OCC3CC3)cc2)n(Cc2ccc(Cl)cc2)c1=O [Compound I-0921] — 2.5-fold lower, 30 nM
- CCOc1ccc(/N=c2\[nH]c(=O)n([C@@H](C)[C@@H](C)C(=O)O)c(=O)n2Cc2ccc(Cl)cc2)cc1Cl [Compound I-0922] — 2.6-fold lower, 29 nM
- CC(C)Oc1ccc(/N=c2\[nH]c(=O)n([C@@H](C)[C@@H](C)C(=O)O)c(=O)n2Cc2ccc(Cl)cc2)cc1Cl [Compound I-0923] — 4.9-fold lower, 15 nM
- CCOc1ccc(/N=c2\[nH]c(=O)n(CC3(C(=O)O)CC3)c(=O)n2Cc2ccc(Cl)cc2)cc1Cl [Compound I-0924] — 2.5-fold lower, 30 nM
- CCCOc1ccc(/N=c2\[nH]c(=O)n(CC3(C(=O)O)CC3)c(=O)n2Cc2ccc(Cl)cc2)cc1 [Compound I-0925] — within 1.5-fold, 59 nM
- CCCOc1ccc(/N=c2\[nH]c(=O)n([C@@H](C)[C@@H](C)C(=O)OC)c(=O)n2Cc2ccc(C)cc2)cc1 [Compound I-0926] — 2.4-fold lower, 31 nM
- COC(=O)[C@H](C)[C@H](C)n1c(=O)[nH]/c(=N\c2ccc(OC(C)C)c(C)c2)n(Cc2ccc(C)cc2)c1=O [Compound I-0927] — 3.5-fold lower, 21 nM
- COC(=O)[C@H](C)[C@H](C)n1c(=O)[nH]/c(=N\c2ccc(OC(C)C)c(Cl)c2)n(Cc2ccc(C)cc2)c1=O [Compound I-0928] — 5.3-fold lower, 14 nM
- CCCOc1ccc(/N=c2\[nH]c(=O)n([C@@H](C)[C@@H](C)C(=O)O)c(=O)n2Cc2ccc(C)cc2)cc1 [Compound I-0929] — 1.6-fold lower, 45 nM
- Cc1ccc(Cn2c(=O)n([C@@H](C)[C@@H](C)C(=O)O)c(=O)[nH]/c2=N\c2ccc(OC(C)C)c(C)c2)cc1 [Compound I-0930] — 2.5-fold lower, 30 nM
- C[C@@H](Cn1c(=O)[nH]/c(=N\c2ccc(O[C@H](C)C(F)(F)F)cc2)n(Cc2ccc(Cl)cc2)c1=O)C(=O)O [Compound I-0932] — 3.5-fold lower, 21 nM
- C[C@H](Oc1ccc(/N=c2\[nH]c(=O)n(C[C@H](C)C(=O)O)c(=O)n2Cc2ccc(Cl)cc2)cc1)C(F)(F)F [Compound I-0933] — within 1.5-fold, 82 nM
- O=C(O)C1(Cn2c(=O)[nH]/c(=N\c3ccc(OCC4CC4)cc3)n(Cc3ccc(Cl)cc3)c2=O)CC1 [Compound I-0934] — within 1.5-fold, 57 nM
- Cc1ccc(Cn2c(=O)n(CC3(C(=O)O)CC3)c(=O)[nH]/c2=N\c2ccc(OC(C)C)c(C)c2)cc1 [Compound I-0935] — 1.9-fold lower, 38 nM
- CC[C@@H](C)Oc1ccc(/N=c2\[nH]c(=O)n([C@H](C)CC(=O)O)c(=O)n2Cc2ccc(C)cc2)cc1 [Compound I-0936] — within 1.5-fold, 65 nM
- CC[C@@H](C)Oc1ccc(/N=c2\[nH]c(=O)n([C@H](C)CC(=O)O)c(=O)n2Cc2ccc(C)cc2)cc1C [Compound I-0937] — 3.4-fold lower, 22 nM
- CC[C@@H](C)Oc1ccc(/N=c2\[nH]c(=O)n([C@H](C)CC(=O)OC)c(=O)n2Cc2ccc(C)cc2)cc1C [Compound I-0938] — 2.1-fold lower, 35 nM
- CC[C@@H](C)Oc1ccc(/N=c2\[nH]c(=O)n([C@H](C)CC(=O)OC)c(=O)n2Cc2ccc(C)cc2)cc1 [Compound I-0939] — 2.2-fold lower, 34 nM
- CCOC(=O)C1(Cn2c(=O)[nH]/c(=N\c3ccc(OC(C)C)c(C)c3)n(Cc3ccc(C)cc3)c2=O)CC1 [Compound I-0941] — 15-fold lower, 5 nM
- COC(=O)[C@@H](C)Cn1c(=O)[nH]/c(=N\c2ccc(O[C@H](C)C(F)(F)F)cc2)n(Cc2ccc(Cl)cc2)c1=O [Compound I-0942] — 3.4-fold lower, 22 nM
- COC(=O)[C@@H](C)Cn1c(=O)[nH]/c(=N\c2ccc(O[C@@H](C)C(F)(F)F)cc2)n(Cc2ccc(Cl)cc2)c1=O [Compound I-0943] — within 1.5-fold, 61 nM
- C#Cc1ccc(Cn2c(=O)n(C[C@H](C)C(=O)OC)c(=O)[nH]/c2=N\c2ccc(OC(C)C)c(C)c2)cc1 [Compound I-0945] — 2.3-fold higher, 173 nM
- C#Cc1ccc(Cn2c(=O)n(C[C@H](C)C(=O)O)c(=O)[nH]/c2=N\c2ccc(OC(C)C)c(C)c2)cc1 [Compound I-0946] — 3.2-fold higher, 239 nM
- COC(=O)[C@@H](C)Cn1c(=O)[nH]/c(=N\c2ccc(CC(C)C)c(C)c2)n(Cc2ccc(Cl)cc2)c1=O [Compound I-0947] — 3.1-fold lower, 24 nM
- COC(=O)[C@@H](C)Cn1c(=O)[nH]/c(=N\c2ccc(C=C(C)C)c(C)c2)n(Cc2ccc(Cl)cc2)c1=O [Compound I-0948] — 3.9-fold lower, 19 nM
- CC(C)=Cc1ccc(/N=c2\[nH]c(=O)n(C[C@H](C)C(=O)O)c(=O)n2Cc2ccc(Cl)cc2)cc1C [Compound I-0950] — 3.7-fold lower, 20 nM
- COC(=O)[C@@H](C)Cn1c(=O)[nH]/c(=N\c2ccc(OC(C)C)c(C#N)c2)n(Cc2ccc(C)cc2)c1=O [Compound I-0951] — 2.2-fold lower, 33 nM
- CCN(c1ccc(/N=c2\[nH]c(=O)n(C[C@H](C)C(=O)OC)c(=O)n2Cc2ccc(Cl)cc2)cc1)C(C)C [Compound I-0952] — 10-fold higher, 741 nM
- COC(=O)[C@@H](C)Cn1c(=O)[nH]/c(=N\c2ccc(OC(C)C)c(C#N)c2)n(Cc2ccc(Cl)cc2)c1=O [Compound I-0953] — 1.8-fold lower, 42 nM
- COC(=O)[C@@H](C)Cn1c(=O)[nH]/c(=N\c2ccc(N3CCCCC3)cc2)n(Cc2ccc(Cl)cc2)c1=O [Compound I-0954] — 3.2-fold lower, 23 nM
- COC(=O)[C@@H](C)Cn1c(=O)[nH]/c(=N\c2ccc(C=C(C)C)c(Cl)c2)n(Cc2ccc(Cl)cc2)c1=O [Compound I-0955] — 2.6-fold lower, 28 nM
- CCOC(=O)CCn1c(=O)[nH]/c(=N\c2ccc(OCC3CC3)c(Cl)c2)n(Cc2ccc(C)cc2)c1=O [Compound I-0957] — 3-fold lower, 25 nM
- COC(=O)[C@@H](C)Cn1c(=O)[nH]/c(=N\c2ccc(OCC3CC3)c(Cl)c2)n(Cc2ccc(C)cc2)c1=O [Compound I-0958] — 2.5-fold lower, 30 nM
- CC(C)=Cc1ccc(/N=c2\[nH]c(=O)n(C[C@H](C)C(=O)O)c(=O)n2Cc2ccc(Cl)cc2)cc1Cl [Compound I-0959] — 11-fold lower, 7 nM
- CC(C)Oc1ccc(/N=c2\[nH]c(=O)n(C[C@H](C)C(=O)O)c(=O)n2Cc2ccc(Cl)cc2)cc1C#N [Compound I-0960] — within 1.5-fold, 70 nM
- C[C@@H](Cn1c(=O)[nH]/c(=N\c2ccc(N3CCCCC3)cc2)n(Cc2ccc(Cl)cc2)c1=O)C(=O)O [Compound I-0962] — 2.4-fold lower, 31 nM

With `Cc1cc(/N=c2\[nH]c(=O)n(C[C@H](C)C(=O)O)c(=O)n2Cc2ccc(Cl)cc2)ccc1CC(C)C` [Compound I-0949] the IC50 was 8 nM and 21 nM.

Same assay, conditions: human P2X3 receptor, Test Example 1

In the case of `CCc1ccc(Cn2c(=O)n(C[C@H](C)C(=O)OC)c(=O)[nH]/c2=N\c2ccc(OC(C)C)c(C)c2)cc1` [Compound I-0894, (S)-1-(4-ethylbenzyl)-6-(3-mehyl-4-isopropoxyphenylimino)-3-(2-methoxycarbonylpropyl)-1,3,5-triazinane-2,4-dion], the IC50 is reported as 28 nM.
